Test results as given in patent US20260200977A1, “PEPTIDE HAVING ACTIVITY OF IMPROVING STATE OF SKIN, AND USE THEREOF” (CAREGEN CO., LTD., priority 2022, published 2026).

Key:
NIH3T3 cells = test: Proliferation of skin cells, MTT (change in cell survival rate); assay type: cell-based, mouse; settings: 50 μM or 100 μM peptide, serum-free media, 72 hours, MTT absorbance 540 nm, FIG. 1
Experimental: In this example, the aim was to confirm the effect of a peptide according to an example on proliferation of skin cells, by evaluating changes in survival rate of NIH3T3 cells, which are mouse fibroblasts.
Specifically, NIH3T3 cells were seeded in a […] at a density of 1×10^4 cells/well and cultured for 24 hours. Next, the cells were washed once with serum-free DMEM media, and 50 μM or 100 μM of a peptide consisting of an amino acid sequence of SEQ ID NO: 1 was dispensed into 200 μL of the serum-free media, and cultured in a CO2 incubator at 37° C. for 72 hours. Next, the culture was washed twice with PBS, and MTT solution was dispensed into each well at a concentration of 0.5 mg/ml. Next, it was shaded from light and cultured in a CO2 incubator at 37° C. for 4 hours, and the absorbance at 540 nm was measured using a microplate reader (Molecular Devices, USA).

collagen type 1 (CoI1a1) = test: Expression of extracellular matrix component by RT-PCR in NIH3T3 cells; assay type: cell-based, mouse; settings: 10 μM, 50 μM or 1000 μM peptide, 24 hours, FIG. 2, FIG. 3A
Experimental: (§1) In this example, the aim was to confirm the effect of the peptide according to an example on improving endogenous skin aging, including improvement of wrinkles and enhancement of elasticity, etc., by evaluating the expression levels of collagen type 1 (CoI1a1), fibronectin, elastin, and hyaluronic acid, which are known components of the dermis.
(§2) Specifically, NIH3T3 cells were seeded in a 6-well plate at a density of 3×10^5 cells/well and cultured for 24 hours. Next, the cells were washed once with serum-free DMEM media, and 10 μM, 50 μM or 1000 μM of a peptide consisting of an amino acid sequence of SEQ ID NO: 1 was dispensed into 1 mL of the serum-free media, and cultured in a CO2 incubator at 37° C. for 24 hours. Next, the culture was washed twice with PBS, and RNA was isolated from the culture using easy blue (iNtRON, Cat. No.: 17061, Korea). Next, using an RT kit (Enzynomics, Cat. NO.: RT200, Korea), the isolated RNA was reverse transcribed to synthesize the respective cDNA. Next, using the synthesized 1 μg cDNA, primers for CoI1a1, fibronectin, or elastin, and a PCR kit (Enzynomics, Cat. No.: P581T, Korea), polymerase chain reaction (PCR) was performed. Meanwhile, in this example, an untreated group was used as a control group, and a group to which IGF was added was used as a positive control group, the nucleotide sequences of the primers used in this example are shown in Table 2 below.

elastin = test: as above; assay type: cell-based, mouse; settings: 10 μM, 50 μM or 1000 μM peptide, 24 hours, FIG. 2, FIG. 3C
Experimental: as §1, §2

fibronectin = test: as above; assay type: cell-based, mouse; settings: 10 μM, 50 μM or 1000 μM peptide, 24 hours, FIG. 2, FIG. 3B
Experimental: as §1, §2

aquaporin-3 (AQP3) = test: Expression of skin barrier factor by RT-PCR in HaCaT cells; assay type: cell-based; settings: 10 μM, 50 μM or 1000 μM peptide, 24 hours, FIG. 4, FIG. 5B
Experimental: (§3) In this example, the aim was to confirm the effect of the peptides according to an example on strengthening the skin barrier, by evaluating the expression levels of sirtuin-1 (SIRT-1) or aquaporin-3 (AQP3).
(§4) Specifically, HaCaT cells were seeded in a 6-well plate at a density of 3×10^5 cells/well and cultured for 24 hours. Next, the cells were washed once with serum-free DMEM media, and 10 μM, 50 μM or 1000 μM of the peptide consisting of the amino acid sequence of SEQ ID NO: 1 was dispensed into 1 mL of the serum-free media, and cultured in a CO2 incubator at 37° C. for 24 hours. Next, the culture was washed twice with PBS, and RNA was isolated from the culture using easy blue (iNtRON, Cat. No.: 17061, Korea). Next, using an RT kit (Enzynomics, Cat. NO.: RT200, Korea), the isolated RNA was reverse transcribed to synthesize the respective cDNA. Next, using the synthesized 1 μg cDNA, primers for SIRT-1 or AQP3, and a PCR kit (Enzynomics, Cat. No.: P581T, Korea), polymerase chain reaction (PCR) was performed. Meanwhile, in this example, an untreated group was used as a control group, and a group to which EGF was added was used as a positive control group, the nucleotide sequences of the primers used in this example are shown in Table 3 below.

sirtuin-1 (SIRT-1) = test: as above; assay type: cell-based; settings: 10 μM, 50 μM or 1000 μM peptide, 24 hours, FIG. 4, FIG. 5A
Experimental: as §3, §4

HaCaT cells = test: Reactive oxygen species increased by ultraviolet irradiation, DCFH-DA flow cytometry; assay type: cell-based; settings: 50 μM or 1000 μM peptide, 15 mJ/cm^2 ultraviolet rays, 24 hours, FACS, FIG. 6
Experimental: In this example, the aim was to confirm the effect of the peptide according to an embodiment on the antioxidant effect in damaged skin, by evaluating the change in the level of reactive oxygen species in skin cells increased by ultraviolet irradiation.
Specifically, HaCaT cells were seeded in a 6-well plate at a density of 5×10^5 cells/well and cultured for 24 hours. Next, the cells were washed once with serum-free DMEM media, and 50 μM or 1000 μM of a peptide consisting of an amino acid sequence of SEQ ID NO: 1 was dispensed into 1 mL of the serum-free media, and cultured in a CO2 incubator at 37° C. for […]. Next, the above culture was transferred to an e-tube, mixed with 1 ml of PBS, and dispensed into a well plate. Next, using a UV irradiator (VILBER LOURMAT, Cat No.: 3102-BSU, France), 15 mJ/cm^2 ultraviolet rays were irradiated to HaCaT cells. Next, the PBS in the well plate was removed, 900 μL of the culture medium in which the peptides were dispensed was added, and the plate was cultured in a CO2 incubator at 37° C. for 24 hours. Next, the culture was treated with DCFH-DA (2′,7′-dichlorofluorescin diacetate), wrapped in foil, and cultured in a CO2 incubator at 37° C. for 30 minutes. […] After washing the centrifuged cells with PBS, fluorescence values were measured through flow cytometry (FACS, BD, USA). […]

Sequence: TNRTEVEG [SEQ ID NO: 1]
- proliferation of fibroblasts (NIH3T3 cells): promoted
- expression of CoI1a1 (collagen type 1 (CoI1a1)): increased
- expression of elastin (elastin): increased
- expression of fibronectin (fibronectin): increased
- expression of AQP3 (aquaporin-3 (AQP3)): increased
- expression of SIRT-1 (sirtuin-1 (SIRT-1)): increased
- level of reactive oxygen species in keratinocytes increased by ultraviolet irradiation (HaCaT cells): reduced
